Laboratory results reported in patent US4529549A, “Spergualin-related compounds and process for the preparation thereof” (Zaidan Hojin Biseibutsu Kagaku Kenkyu Kai, priority 1982, dated 1985).
In brackets after ≈: the same amount, converted by molar mass. Where two headings read alike, the source gives them in different places.

Experiments:
[1] = Stability of the compounds in aqueous solutions (HPLC residual content); format: physicochemical; conditions: water
Description: Each of the compounds of this invention was dissolved in water to a concentration of 0.5 (w/w)%. The aqueous solution was maintained at 40°±1° C., and sampled at certain time intervals. Each sample was subjected to high-performance liquid chromatographic analysis to measure the area of the peak of the compound at each sampling time, and to calculate the ratio of the area of the peak after the indicated period of time to that at the first sampling time. The results of the calculation were used to determine the contents (%) of the compound of this invention in the aqueous solution after the indicated periods of time, with the initial content of said compound set at 100%.

[2] = system: Bacillus subtilis PCI219; test: Growth-inhibiting action on Bacillus subtilis (agar plate MIC); format: cell-based; conditions: Bacillus subtilis
Description: Each of the compounds of this invention was dissolved in nutrient agar media to final concentrations of 100, 50, 25, 12.5, 6.25, 3.13 and 1.56 μg/ml, to prepare agar plates for testing. Bacillus subtilis PCI219 was adjusted to a content of 1×10^6 viable cells/ml, in a culture broth, and a loopful of the broth was applied onto the agar plates. The plates were incubated for 20 hours at 37° C. under stationary conditions, and observed for the formation of colonies of Bacillus subtilis. The lowest of the concentrations at which no colonies were formed was taken to be minimum inhibitory concentration (MIC).

[3] = system: mouse leukemia L1210 cells; test: In vitro proliferation-inhibiting action on mouse leukemia L1210 cells; format: cell-based; conditions: 48 hours at 37° C.
Description: Leukemia L1210 cells (1×10^5 /0.2 ml) were transplanted to female DBA/2 mice intraperitoneally. four days later, the ascitic fluid was collected and centrifuged to obtain proliferated L1210 cells. The L1210 cells collected were added to RPMI1640 medium containing bovine fetal serum and 2-mercaptoethanol, to obtain a suspension of L1210 cells having a final concentration of 5×10^4 cells/0.9 ml. Each of the compounds of this invention was dissolved in said culture medium to prepare solutions with final concentrations ranging from 0.062 to 100 μg/ml. 0.9 ml of the L1210 cell suspension and 0.1 ml of each test solution were mixed in petri dishes, and incubated for 48 hours at 37° C. in an incubator under an atmosphere of carbon dioxide gas. The number of L1210 cells was counted before and after the incubation, and that concentration of the compound which inhibited the proliferation of L1210 cells by 50% of the control's proliferation was determined (IC50).

[4] = Toxicity: change in body weight in mice transplanted with L1210; format: in vivo, mouse (male CDF1-SLC); conditions: once daily for 9 days
Description: (§1) Leukemia L1210 cells (1×10^5 /0.2 ml) were transplanted intraperitoneally into male CDF1 -SLC mice (6 mice/group). Each of the compounds of this invention was diluted with physiological saline to various concentrations. Each dilution was administered at a dose of 0.1 ml/10 g of body weight once daily for 9 days, starting on the day after the day of the transplantation. The mice of the control group were administered physiological saline.
Change in body weight, the measure of the toxicity of the compounds of this invention, was expressed by a difference between the change in body weight for the group receiving the compound of this invention and that for the control group receiving physiological saline and undergoing no transplantation.

[5] = system: mouse leukemia L1210; test: Life-prolonging effect in mouse leukemia L1210; format: in vivo, mouse (male CDF1-SLC); conditions: once daily for 9 days, >125 effective
Description: as §1
The average number of days that the group receiving the compound of this invention survived was calculated. The FIGURE obtained was divided by the average number of survival days for the control group, and was multiplied by 100 (T/C (%)). T/C value more than 125 was considered to be effective.

[6] = system: Ehrlich carcinoma; conditions: cited from earlier work
[7] = system: Gram-negative bacteria; conditions: cited from earlier work
[8] = system: mouse leukemia FL-4; conditions: cited from earlier work
[9] = system: Gram-positive bacteria; conditions: cited from earlier work
[10] = system: mouse leukemia L-1210; conditions: cited from earlier work
[11] = system: sarcoma 180 (S-180); conditions: cited from earlier work

Structure (SMILES) | remaining at 12 h [1] [%] | remaining at 24 h [1] [%] | remaining at 48 h [1] [%] | remaining at 72 h [1] [%] | remaining at 120 h [1] [%] | remaining at 168 h [1] [%] | IC50 [3] [mg/L] | Change in body weight (g) ([4]; 0.39 mg/kg/day) | Change in body weight (g) ([4]; 0.78 mg/kg/day) | Change in body weight (g) ([4]; 1.56 mg/kg/day) | Change in body weight (g) ([4]; 3.13 mg/kg/day) | Change in body weight (g) ([4]; 6.25 mg/kg/day) | Change in body weight (g) ([4]; 12.50 mg/kg/day) | T/C (%) ([5]; 0.78 mg/kg/day) | T/C (%) ([5]; 1.56 mg/kg/day) | T/C (%) ([5]; 3.13 mg/kg/day) | T/C (%) ([5]; 6.25 mg/kg/day) | T/C (%) ([5]; 12.50 mg/kg/day) | T/C (%) ([5]; 25.00 mg/kg/day) | T/C (%) ([5]; 50.00 mg/kg/day) | also measured
Cl.Cl.Cl.N=C(N)NCCCCCCC(=O)NCC(=O)NCCCCNCCCN [Compound 1, 10-[N-(7-guanidinoheptanoyl)-glycyl]-1,5,10-triazadecane trihydrochloride] | 99.7 | 100 | 99.7 | 99.7 | 99.8 | 99.9 | 1.7 | +1.8 g | +2.7 g | +1.0 g | +0.8 g | +0.9 g | +0.2 g | > 250 | > 388 | > 667 | > 769 | > 528 | > 279 | 12.9 | MIC ([2]; PCI219, nutrient agar, 20 hours at 37° C., read-out: MIC): 6.25 mg/L; Change in body weight ([4]; 25.00 mg/kg/day): -1.6 g; T/C (%) ([5]; 0.39 mg/kg/day): 126%
Cl.Cl.Cl.N=C(N)NCCCCCCC(=O)N[C@@H](CO)C(=O)NCCCCNCCCN [Compound 2, 10-[N-(7-guanidinoheptanoyl)-L-seryl]-1,5,10-triazadecane trihydrochloride] | 100 | 100 | 99.8 | 100 | 99.7 | 99.8 | 4.5 | +2.7 g | +1.5 g | +1.3 g | +0.6 g | +1.0 g | – | > 346 | > 769 | > 769 | > 705 | > 612 | 100 | 12.8 | MIC ([2]; PCI219, 20 h): 12.5 mg/L; Change in body weight ([4]; 12.50 mg/kg/day): -0.2 g; T/C (%) ([5]; 0.39 mg/kg/day): 124%
N=C(N)NCCCCC(O)CC(=O)NC(O)C(=O)NCCCCNCCCN (stereo not drawn) [Spergualin] | – | – | – | – | – | – | 4.6 (≈ 11.4 µM) | – | +0.8 g | +2.5 g | +1.2 g | +0.9 g | +0.8 g | 129 | > 224 | > 665 | > 769 | > 700 | > 524 | > 342 | curing effect and life extension effect [6]: distinctive curing effect and life extension effect; Residual content (%) of the compound in an aqueous solution ([1]; 12 h): 94.6%; Residual content (%) of the compound in an aqueous solution ([1]; 24 h): 90.8%; Residual content (%) of the compound in an aqueous solution ([1]; 48 h): 84.6%; Residual content (%) of the compound in an aqueous solution ([1]; 72 h): 78.5%; Residual content (%) of the compound in an aqueous solution ([1]; 120 h): 69.9%; Residual content (%) of the compound in an aqueous solution ([1]; 168 h): 65.1%; growth inhibitory activity [7]: growth inhibitory activity; curing effect and life extension effect [8]: distinctive curing effect and life extension effect; Change in body weight (g) ([4]; 25.00 mg/kg/day): +1.1 g; Change in body weight (g) ([4]; 50.00 mg/kg/day): +0.2 g; growth inhibitory activity [9]: growth inhibitory activity; curing effect and life extension effect [10]: distinctive curing effect and life extension effect; curing effect and life extension effect [11]: distinctive curing effect and life extension effect
